One block for each compound: values may come before it.
Legend:
[1] = test system: activated HUVEC monolayers; assay: Transport of WBCs across activated HUVEC monolayers on a porous membrane (SDF1-α chemoattractant); format: cell-based, human; conditions: for WBC transmigration across HUVEC monolayer: 30 min, 37° C., WBCs counted in bottom chamber; for WBC capacity to transmigrate across the porous filter in the absence of an endothelial monolayer: no HUVEC monolayer
Description: A confluent EC monolayer from human umbilical vein ECs was grown on a porous membrane through which peripheral lymphocytes isolated from healthy individuals (wild-type WBCs) can transmigrate, driven by the presence of the chemoattractant SDF1-α in the chamber underneath the ECs. Under control conditions, 77.7±2.3% wild-type WBCs underwent transmigration by 30 min, which was abrogated when K562 cells lacking the ICAM-1- and VCAM-1-binding integrins LFA-1 and VLA-4, respectively, were used (FIG. 1A). Transport of either peripheral blood lymphocytes (control) or K562 cells lacking ICAM-1- and VCAM-1-binding integrins of white blood cells (WBCs) across activated HUVEC monolayers assessed at 37° C. by counting WBCs in the bottom chamber underneath HUVEC, 30 min after adding WBCs to the upper chamber above HUVECs (black bars). Transmigration was alternatively performed prior (control) or after blocking integrins LFA-1 or VLA-4 on peripheral blood lymphocytes using monoclonal antibodies. The horizontal dashed line in FIG. 1A represents WBC transmigration at 4° C.
Data are normalized to control values, and represent mean and standard errors of the mean (n≧3 experiments). *, P≦0.001 by Student's t test.
Further, transport of activated peripheral blood lymphocytes (WBCs) across activated HUVEC monolayers was assessed at 37° C. by counting WBCs in the bottom chamber underneath HUVEC 30 min after adding WBCs to the upper chamber above HUVECs (FIG. 2A black bars). Absence of HUVEC monolayer was a control (FIG. 2A white bars). Transmigration was performed in the absence (control) or presence of filipin, methyl-β-cyclodextrin (Cdx) or amiloride. In accord with previous works (Tilghman R W, et al. (2002) FEBS Lett 525:83-87; Barreiro O, et al. (2005) Blood 105:2852-2861; Millan et al., 2006), WBC transmigration was inhibited by methyl-β-cyclodextrin (Cdx; 48.1±4.8% of control; FIG. 2A), an agent that depletes cholesterol from cells. […] Instead, amiloride, which affects Na^+/H^+ exchangers (Kleyman T R, et al. (1988) J Membr Biol 105:1-21) and inhibits CAM-mediated endocytosis (Muro S, et al. (2003) J Cell Sci 11 6:1599-1609), reduced WBC transmigration even to a greater extent than Cdx (38.6±3.7% of control; FIG. 2A).

activated HUVECs [2] = assay: Binding of activated WBCs to activated HUVECs (fluorescence microscopy); format: cell-based, human; conditions: 30 min, 37° C.
Description: The horizontal dashed line represents binding of negative control K562 WBCs, which lack ICAM-I- and VCAM-1-binding integrins. Data are normalized to control values, and represent mean and standard errors of the mean (n≧3 experiments). *, P≦0.001 by Student's t test.

activated HUVECs [3] = assay: Paracellular vs transcellular transmigration of WBCs over HUVECs on coverslips (podosome scoring); format: cell-based, human; conditions: for WBC TEM (WBCs projecting podosomes into/under HUVECs): 30 min, 37° C.; for arrested WBCs located away from the EC borders / diapedesis of WBCs located away from the EC borders: EC center; for paracellular TEM (transmigrating WBCs at EC border) / transcellular TEM (transmigrating WBCs at EC center): normalized to control; for paracellular TEM (transmigrating WBCs at EC border): <3 μm from cell border; for transcellular TEM (transmigrating WBCs at EC center): ≧3 μm from cell border
Description: The role of lipid domains and CAM-mediated endocytosis in paracellular versus transcellular diapedesis of leukocytes was examined. To distinguish between paracellular and transcellular TEM, WBCs were labeled with green-fluorescent calcein and diapedesis was evaluated by fluorescence and scanning electron microscopy as WBCs projecting podosomes (versus round-shaped WBCs) into or under ECs growing over glass coverslips (FIG. 3; FIG. 4).
Data are normalized to control values (horizontal dashed lines) and represent mean and standard errors of the mean (n≧30 WBCs). *, P≦0.05; **, P≦0.01; ***, P≦0.001 by Student's t test.

activated HUVECs [4] = assay: Recruitment of molecules at sites of endothelial ICAM-1 engagement by anti-ICAM beads; format: cell-based, human; conditions: 15 min
HUVECs = assay: Endocytosis of anti-ICAM beads by ECs in culture (HUVECs); format: cell-based, human; conditions: values normalized to controls
ICAM-1 = conditions: cited from earlier work

Compound: N=C(N)NC(=O)c1nc(Cl)c(N)nc1N [amiloride]
WBC transmigration across HUVEC monolayer [1]: 38.6±3.7 % of control
WBC capacity to transmigrate across the porous filter in the absence of an endothelial monolayer [1]: Neither Cdx nor amiloride impaired
affected WBC binding to ECs (activated HUVECs [2]): Neither
WBC TEM (WBCs projecting podosomes into/under HUVECs) (activated HUVECs [3]): 63.8±7.3 % of control
arrested WBCs located away from the EC borders (activated HUVECs [3]): 209.1±68.1 % of control
diapedesis of WBCs located away from the EC borders (activated HUVECs [3]): 56.0±27.5 % of control
paracellular TEM (transmigrating WBCs at EC border) (activated HUVECs [3]): 139.6±34.1%
transcellular TEM (transmigrating WBCs at EC center) (activated HUVECs [3]): 65.5±29.7%
ICAM-1 enrichment in areas of bead engulfment (activated HUVECs [4]): 22.9 % decrease
Internalization (%) of anti-ICAM beads (HUVECs): 13.8 ± 3.3 %

Compound: CN(C)CCCN1c2ccccc2CCc2ccccc21 [imipramine]
WBC TEM (WBCs projecting podosomes into/under HUVECs) (activated HUVECs [3]): 46.6±7.6 % of control
level of transcellular TEM (activated HUVECs [3]; FIG. 14C): decreased the level of transcellular TEM
paracellular TEM (activated HUVECs [3]; FIG. 14C): paracellular TEM increased
ceramide enrichment in areas of bead engulfment (activated HUVECs [4]): 23.6 % decrease
Internalization (%) of anti-ICAM beads (HUVECs): 61.9 ± 6.7 %

Compound: CCN(c1nc(N)c(C(=O)N=C(N)N)nc1Cl)C(C)C [EIPA, 5′-(N-ethyl-N-isopropyl)amiloride]
ceramide enrichment in areas of bead engulfment (activated HUVECs [4]): 35.6 % decrease

affected WBC binding to ECs (activated HUVECs [2]): Neither
Compound: methyl-β-cyclodextrin [Cdx]
WBC transmigration across HUVEC monolayer [1]: 48.1±4.8 % of control
WBC capacity to transmigrate across the porous filter in the absence of an endothelial monolayer [1]: Neither Cdx nor amiloride impaired
WBC TEM (WBCs projecting podosomes into/under HUVECs) (activated HUVECs [3]): 80.5±6.8 % of control
arrested WBCs located away from the EC borders (activated HUVECs [3]): 170.5±36.2 % of control
diapedesis of WBCs located away from the EC borders (activated HUVECs [3]): 71.5±14.6 % of control
paracellular TEM (transmigrating WBCs at EC border) (activated HUVECs [3]): 124.9±17.1%
transcellular TEM (transmigrating WBCs at EC center) (activated HUVECs [3]): 78.3±14.9%
ICAM-1 enrichment in areas of bead engulfment (activated HUVECs [4]): 43 % decrease

Compound: CCCCC[C@@H](O)[C@H]1C(=O)O[C@H](C)[C@@H](O)/C=C/C=C/C=C/C=C/C=C(\C)[C@@H](O)C[C@H](O)C[C@H](O)C[C@H](O)C[C@H](O)C[C@H](O)C[C@@H]1O [filipin]
WBC transmigration across HUVEC monolayer [1]: 88.0±7.7 % of control
WBC TEM (WBCs projecting podosomes into/under HUVECs) (activated HUVECs [3]): 108.7±8.6 % of control
Internalization (%) of anti-ICAM beads (HUVECs): 107.2 ± 1.5%
Formation of endocytic vesicles upon ICAM-1 engagement by anti-ICAM particles (ICAM-1): not affected
